Read-outs that look alike come from different tables or passages of the source.
Experiments:
Type in all cases: biochemical
[1] = target: Nitric oxide synthase (endothelial, human recombinant) eNOS (Homo sapiens, UniProt P29474); experiment: Human eNOS enzyme assay ([3H]L-arginine to [3H]L-citrulline)
[2] = target: Recombinant human inducible NOS (iNOS) (Homo sapiens, UniProt P35228); experiment: Human iNOS enzyme assay, radiometric
[3] = target: Nitric oxide synthase (neuronal, human recombinant) nNOS (Homo sapiens, UniProt P29475); experiment: Human nNOS enzyme assay ([3H]L-arginine to [3H]L-citrulline)
[4] = human recombinant iNOS, values without parentheses, read-out: hiNOS IC50
[5] = human recombinant eNOS, values without parentheses, read-out: heNOS IC50
[6] = human recombinant nNOS, values without parentheses, read-out: hnNOS IC50
[7] = human enzymes, ratio of eNOS IC50 to nNOS IC50

Sequence of Nitric oxide synthase (neuronal, human recombinant) nNOS (P29475 whole entry): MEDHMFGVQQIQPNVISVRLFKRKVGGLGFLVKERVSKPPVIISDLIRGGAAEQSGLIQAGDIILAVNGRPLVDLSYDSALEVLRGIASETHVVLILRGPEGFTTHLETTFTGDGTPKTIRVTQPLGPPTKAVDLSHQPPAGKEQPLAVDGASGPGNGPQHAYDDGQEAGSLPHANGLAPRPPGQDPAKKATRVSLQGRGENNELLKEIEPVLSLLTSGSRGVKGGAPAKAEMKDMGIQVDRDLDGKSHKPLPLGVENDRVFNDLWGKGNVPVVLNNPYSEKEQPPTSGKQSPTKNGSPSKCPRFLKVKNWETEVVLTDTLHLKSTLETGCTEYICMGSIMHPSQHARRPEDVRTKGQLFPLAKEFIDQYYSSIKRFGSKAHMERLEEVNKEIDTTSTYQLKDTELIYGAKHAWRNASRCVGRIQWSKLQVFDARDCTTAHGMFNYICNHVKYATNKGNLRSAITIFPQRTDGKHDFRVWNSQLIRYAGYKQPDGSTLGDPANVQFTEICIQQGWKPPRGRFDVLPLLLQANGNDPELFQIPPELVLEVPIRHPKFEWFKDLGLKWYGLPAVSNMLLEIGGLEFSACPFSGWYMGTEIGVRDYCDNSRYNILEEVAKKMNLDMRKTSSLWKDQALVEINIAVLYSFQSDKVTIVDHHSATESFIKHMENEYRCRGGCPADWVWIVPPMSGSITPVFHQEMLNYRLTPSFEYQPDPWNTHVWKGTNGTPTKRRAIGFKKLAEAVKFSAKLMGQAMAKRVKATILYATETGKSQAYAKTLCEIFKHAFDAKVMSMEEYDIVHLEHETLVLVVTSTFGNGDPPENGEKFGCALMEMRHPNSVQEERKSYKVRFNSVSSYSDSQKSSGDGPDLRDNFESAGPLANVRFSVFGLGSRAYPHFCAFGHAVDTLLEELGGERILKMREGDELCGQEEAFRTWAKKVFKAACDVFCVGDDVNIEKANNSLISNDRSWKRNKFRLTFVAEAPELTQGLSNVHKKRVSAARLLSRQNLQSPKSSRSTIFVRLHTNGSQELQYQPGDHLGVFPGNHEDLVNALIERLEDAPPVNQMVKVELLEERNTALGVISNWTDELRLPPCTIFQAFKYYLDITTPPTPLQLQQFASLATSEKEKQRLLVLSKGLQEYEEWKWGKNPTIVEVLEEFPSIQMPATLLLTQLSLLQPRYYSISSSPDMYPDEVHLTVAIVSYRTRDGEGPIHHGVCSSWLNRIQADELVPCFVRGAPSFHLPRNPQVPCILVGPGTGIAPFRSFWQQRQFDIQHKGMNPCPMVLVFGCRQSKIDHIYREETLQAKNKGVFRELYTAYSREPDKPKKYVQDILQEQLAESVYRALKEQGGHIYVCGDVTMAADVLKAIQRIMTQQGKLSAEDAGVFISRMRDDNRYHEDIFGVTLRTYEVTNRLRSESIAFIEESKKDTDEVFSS
Sequence of Nitric oxide synthase (endothelial, human recombinant) eNOS (P29474 2-1203): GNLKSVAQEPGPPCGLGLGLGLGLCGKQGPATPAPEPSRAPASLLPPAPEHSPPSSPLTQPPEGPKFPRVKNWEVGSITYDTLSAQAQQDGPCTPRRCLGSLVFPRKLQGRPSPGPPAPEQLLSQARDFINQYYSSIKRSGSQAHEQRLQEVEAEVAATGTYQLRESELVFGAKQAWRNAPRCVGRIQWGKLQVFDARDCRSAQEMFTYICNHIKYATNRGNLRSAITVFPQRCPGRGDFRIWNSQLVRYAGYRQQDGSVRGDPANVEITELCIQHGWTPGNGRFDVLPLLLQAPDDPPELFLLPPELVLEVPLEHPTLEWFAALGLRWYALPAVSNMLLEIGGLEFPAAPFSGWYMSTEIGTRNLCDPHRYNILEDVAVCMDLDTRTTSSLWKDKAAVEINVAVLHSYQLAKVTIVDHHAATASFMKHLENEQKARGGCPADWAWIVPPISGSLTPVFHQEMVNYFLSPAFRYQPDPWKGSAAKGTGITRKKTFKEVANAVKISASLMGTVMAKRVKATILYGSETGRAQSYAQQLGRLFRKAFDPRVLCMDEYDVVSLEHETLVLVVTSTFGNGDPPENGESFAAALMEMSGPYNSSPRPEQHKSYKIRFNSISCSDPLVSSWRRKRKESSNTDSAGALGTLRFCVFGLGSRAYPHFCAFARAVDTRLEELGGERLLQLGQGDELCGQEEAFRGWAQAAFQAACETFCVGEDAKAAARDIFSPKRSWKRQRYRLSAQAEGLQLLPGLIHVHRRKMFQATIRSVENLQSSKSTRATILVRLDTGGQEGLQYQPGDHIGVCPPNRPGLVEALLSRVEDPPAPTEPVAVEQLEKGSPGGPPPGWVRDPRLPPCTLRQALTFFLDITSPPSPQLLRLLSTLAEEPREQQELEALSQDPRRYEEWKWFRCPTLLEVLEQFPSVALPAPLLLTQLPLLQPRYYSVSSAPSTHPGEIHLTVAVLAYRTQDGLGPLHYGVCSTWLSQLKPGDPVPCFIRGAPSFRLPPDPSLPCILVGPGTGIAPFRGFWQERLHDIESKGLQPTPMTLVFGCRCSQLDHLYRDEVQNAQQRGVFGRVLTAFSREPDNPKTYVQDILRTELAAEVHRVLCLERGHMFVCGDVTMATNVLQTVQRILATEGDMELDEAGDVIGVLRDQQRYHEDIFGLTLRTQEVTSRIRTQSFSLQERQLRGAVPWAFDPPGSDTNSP
Sequence of Recombinant human inducible NOS (iNOS) (P35228 whole entry): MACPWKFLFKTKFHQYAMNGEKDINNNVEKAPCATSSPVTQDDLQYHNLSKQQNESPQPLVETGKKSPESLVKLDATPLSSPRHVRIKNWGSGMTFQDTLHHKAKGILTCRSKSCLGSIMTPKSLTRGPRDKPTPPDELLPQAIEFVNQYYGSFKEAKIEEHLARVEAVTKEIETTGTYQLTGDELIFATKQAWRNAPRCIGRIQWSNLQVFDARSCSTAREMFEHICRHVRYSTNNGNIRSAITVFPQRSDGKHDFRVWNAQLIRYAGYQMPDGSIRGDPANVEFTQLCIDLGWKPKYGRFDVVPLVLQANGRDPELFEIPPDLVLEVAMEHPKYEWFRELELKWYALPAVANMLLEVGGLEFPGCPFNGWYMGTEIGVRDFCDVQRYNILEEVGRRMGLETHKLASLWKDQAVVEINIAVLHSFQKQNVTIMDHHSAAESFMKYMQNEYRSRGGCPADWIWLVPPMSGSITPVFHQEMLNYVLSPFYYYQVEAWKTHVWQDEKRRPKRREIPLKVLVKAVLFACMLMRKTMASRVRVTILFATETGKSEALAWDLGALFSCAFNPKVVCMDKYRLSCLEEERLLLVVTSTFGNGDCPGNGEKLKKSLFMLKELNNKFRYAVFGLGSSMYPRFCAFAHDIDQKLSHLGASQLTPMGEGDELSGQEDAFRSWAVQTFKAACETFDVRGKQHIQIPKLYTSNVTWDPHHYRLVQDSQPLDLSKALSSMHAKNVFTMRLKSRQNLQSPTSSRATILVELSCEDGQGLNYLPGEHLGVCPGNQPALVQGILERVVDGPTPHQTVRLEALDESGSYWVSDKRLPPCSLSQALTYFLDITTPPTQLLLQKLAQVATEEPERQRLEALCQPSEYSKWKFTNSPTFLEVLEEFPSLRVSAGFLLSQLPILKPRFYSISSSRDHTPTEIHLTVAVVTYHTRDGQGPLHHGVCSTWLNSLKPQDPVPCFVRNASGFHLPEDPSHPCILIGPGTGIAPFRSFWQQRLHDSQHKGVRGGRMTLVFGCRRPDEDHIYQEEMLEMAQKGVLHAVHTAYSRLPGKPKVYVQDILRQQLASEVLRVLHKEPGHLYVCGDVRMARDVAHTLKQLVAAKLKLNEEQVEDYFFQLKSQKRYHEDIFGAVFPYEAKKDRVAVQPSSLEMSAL

SMILES | IC50 [2, 4] [µM] | IC50 [1, 5] [µM] | IC50 [3, 6] [µM] | Selectivity eNOS/nNOS [3, 7] | also measured
CCN(CC)CCN1C(=O)CCc2cc(NC(=N)c3cccs3)ccc21 [Example 2, N-(1-(2-(diethylamino)ethyl)-2-oxo-1,2,3,4-tetrahydroquinolin-6-yl)thiophene-2-carboximidamide] | 22 | – | – | – | IC50 ([1]; read-out: heNOS IC50): 73.6 µM; IC50 ([3]; read-out: hnNOS IC50): 2.21 µM
N=C(Nc1ccc2c(c1)CCC(=O)N2CCCN1CCOCC1)c1cccs1 [Example 5, N-(1-(3-morpholinopropyl)-2-oxo-1,2,3,4-tetrahydroquinolin-6-yl)thiophene-2-carboximidamide] | – | 105 | 5.46 | – | Selectivity eNOS/nNOS [3]: 19.2
N=C(Nc1ccc2c(c1)CCC(=O)N2CCN1CCCC1)c1cccs1 [Example 6, N-(2-oxo-1-(2-(pyrrolidin-1-yl)ethyl)-1,2,3,4-tetrahydroquinolin-6-yl)thiophene-2-carboximidamide] | > 100 | – | 0.165 | – | IC50 ([1]; read-out: heNOS IC50): 29.8 µM
CCN(CC)CCCN1C(=O)CCc2cc(NC(=N)c3cccs3)ccc21 [Example 7, N-(1-(3-(diethylamino)propyl)-2-oxo-1,2,3,4-tetrahydroquinolin-6-yl)thiophene-2-carboximidamide] | > 100 | 13.9 | 0.869 | – | Selectivity eNOS/nNOS [3]: 16
N=C(Nc1ccc2c(c1)CCC(=O)N2CCCN1CCCC1)c1cccs1 [Example 8, N-(1-(3-(pyrrolidin-1-yl)propyl)-2-oxo-1,2,3,4-tetrahydroquinolin-6-yl)thiophene-2-carboximidamide] | – | – | – | – | IC50 ([1]; read-out: heNOS IC50): 24.5 µM
N=C(Nc1ccc2c(c1)CCC(=O)N2CCCN1CCCCC1)c1cccs1 [Example 9, N-(1-(3-(piperidin-1-yl)propyl)-2-oxo-1,2,3,4-tetrahydroquinolin-6-yl)thiophene-2-carboximidamide] | – | 10.2 | 0.798 | 12.8 | –
CN(C)CCCC1Cc2cc(NC(=N)c3cccs3)ccc2NC1=O.Cl.Cl (stereo not drawn) [Example 10, N-(3-(3-(dimethylamino)propyl)-2-oxo-1,2,3,4-tetrahydroquinolin-6-yl)thiophene-2-carboximidamide dihydrochloride] | > 100 | 10.8 | 0.198 | 54.5 | –
CN1CCCC1CCN1C(=O)CCc2cc(NC(=N)c3cccs3)ccc21 (stereo not drawn) [Example 13, N-(1-(2-(1-methylpyrrolidin-2-yl)ethyl)-2-oxo-1,2,3,4-tetrahydroquinolin-6-yl)thiophene-2-carboximidamide] | – | 68.9 | 1.1 | 62.6 | –
CC(CN1C(=O)CCc2cc(NC(=N)c3cccs3)ccc21)N1CCCC1 (stereo not drawn) [Example 15, N-(2-oxo-1-(2-(pyrrolidin-1-yl)propyl)-1,2,3,4-tetrahydroquinolin-6-yl)thiophene-2-carboximidamide] | > 100 | 52.6 | 5.8 | 9.1 | –
CC(CN1CCCc2cc(NC(=N)c3cccs3)ccc21)N1CCCC1 (stereo not drawn) [Example 16, N-(1-(2-(pyrrolidin-1-yl)propyl)-1,2,3,4-tetrahydroquinolin-6-yl)thiophene-2-carboximidamide] | 19.4 | 33.7 | 0.7 | 48.1 | –
CC1C(=O)N(C2CCN(C)CC2)c2ccc(NC(=N)c3cccs3)cc21 (stereo not drawn) [Example 17, N-(3-Methyl-1-(1-methylpiperidin-4-yl)-2-oxoindolin-5-yl)thiophene-2-carboximidamide] | – | – | – | – | IC50 ([1]; heNOS IC50): 155 µM; IC50 ([2]; hiNOS IC50): 57 µM; Selectivity eNOS/nNOS [3]: 31; IC50 ([3]; hnNOS IC50): 4.9 µM
CN1CCC(N2CCCc3cc(NC(=N)c4cccs4)ccc32)CC1 [Example 18, N-(1-(1-methylpiperidin-4-yl)-1,2,3,4-tetrahydroquinolin-6-yl)thiophene-2-carboximidamide] | – | – | – | – | IC50 ([1]; heNOS IC50): 50 µM; IC50 ([2]; hiNOS IC50): > 100 µM; Selectivity eNOS/nNOS [3]: 5.7; IC50 ([3]; hnNOS IC50): 8.8 µM
CN1CCC(N2C(=O)CCc3cc(NC(=N)c4cccs4)ccc32)CC1 [Example 22, N-(1-(1-Methylpiperidin-4-yl)-2-oxo-1,2,3,4-tetrahydroquinolin-6-yl)thiophene-2-carboximidamide] | – | – | – | – | IC50 ([1]; heNOS IC50): 151 µM; IC50 ([2]; hiNOS IC50): > 100 µM; Selectivity eNOS/nNOS [3]: 87.8; IC50 ([3]; hnNOS IC50): 1.72 µM
CN(C)CCN1C(=O)CCCc2cc(NC(=N)c3cccs3)ccc21 [Example 25, N-(1-(2-(Dimethylamino)ethyl)-2-oxo-2,3,4,5-tetrahydro-1H-benzo[b]azepin-7-yl)thiophene-2-carboximidamide] | > 100 | 151 | 12.3 | 12.3 | –
N=C(Nc1ccc2c(c1)CCCC(=O)N2CCN1CCCC1)c1cccs1 [Example 26, N-(2-Oxo-1-(2-(pyrrolidin-1-yl)ethyl)-2,3,4,5-tetrahydro-1H-benzo[b]azepin-7-yl)thiophene-2-carboximidamide] | > 100 | 80.1 | 9.91 | 8.1 | –
CN(C)CCN1C(=O)CCCc2cccc(NC(=N)c3cccs3)c21 [Example 33, N-(1-(2-(Dimethylamino)ethyl)-2-oxo-2,3,4,5-tetrahydro-1H-benzo[b]azepin-9-yl)thiophene-2-carboximidamide] | > 100 | 193 | 2.2 | 90 | –

SMILES | IC50 [2, 4] [µM] | IC50 [1, 5] [µM] | IC50 [3, 6] [µM] | Selectivity eNOS/nNOS [3, 7] | also measured
CNCCN1C(=O)CCc2cc(NC(=N)c3cccs3)ccc21 [Example 34, N-(1-(2-(Methylamino)ethyl)-2-oxo-1,2,3,4-tetrahydroquinolin-6-yl)thiophene-2-carboximidamide] | 1.28 | 45.1 | 0.39 | 115 | –
CNCCN1CCCCc2cc(NC(=N)c3cccs3)ccc21 [Example 36, N-(1-(2-(Methylamino)ethyl)-2,3,4,5-tetrahydro-1H-benzo[b]azepin-7-yl)thiophene-2-carboximidamide] | – | – | 0.38 | – | IC50 ([1]; read-out: heNOS IC50): 47.1 µM
CN1CCCC1CCN1CCCCc2cc(NC(=N)c3cccs3)ccc21 (stereo not drawn) [Example 45, N-(1-(2-(1-Methylpyrrolidin-2-yl)ethyl)-2,3,4,5-tetrahydro-1H-benzo[b]azepin-7-yl)thiophene-2-carboximidamide] | – | – | 1.8 | – | IC50 ([1]; read-out: heNOS IC50): 30.8 µM
CN1CCC(N2CCCCc3cc(NC(=N)c4cccs4)ccc32)C1 (stereo not drawn) [Example 46, N-(1-(1-Methylpyrrolidin-3-yl)-2,3,4,5-tetrahydro-1H-benzo[b]azepin-7-yl)thiophene-2-carboximidamide] | – | – | – | – | IC50 ([1]; read-out: heNOS IC50): 60.5 µM; IC50 ([3]; read-out: hnNOS IC50): 0.08 µM
N=C(Nc1ccc2c(c1)CCN2C1CCNC1)c1cccs1 (stereo not drawn) [Example 49, N-(1-(Pyrrolidin-3-yl)indolin-5-yl)thiophene-2-carboximidamide] | – | 5.45 | 0.08 | – | –
CN1CCC(N2CCc3cc(NC(=N)c4cccs4)ccc32)C1 (stereo not drawn) [Example 50, N-(1-(1-Methylpyrrolidin-3-yl)indolin-5-yl)thiophene-2-carboximidamide] | – | 21.2 | 0.43 | – | –
CCN(C)CCN1CCCc2cc(NC(=N)c3cccs3)ccc21 [Example 51, N-(1-(2-(ethyl(methyl)amino)ethyl)-1,2,3,4-tetrahydroquinolin-6-yl)thiophene-2-carboximidamide] | – | – | 0.09 | – | IC50 ([1]; read-out: heNOS IC50): 33.3 µM; Selectivity eNOS/nNOS [3]: 370
CNCCN1CCCc2cc(NC(=N)c3cccs3)cc(F)c21.Cl.Cl [Example 52, N-(8-fluoro-1-(2-(methylamino)ethyl)-1,2,3,4-tetrahydroquinolin-6-yl)thiophene-2-carboximidamide dihydrochloride] | – | 13.5 | 0.3 | 45 | –
CCN(CC)CCN1CCCc2cc(NC(=N)c3cccs3)ccc21 [Example 53, N-(1-(2-(diethylamino)ethyl)-1,2,3,4-tetrahydroquinolin-6-yl)thiophene-2-carboximidamide] | – | – | 0.25 | – | –
CNCCCN1CCCc2cc(NC(=N)c3cccs3)ccc21 [Example 63, N-(1-(3-(methylamino)propyl)-2,3,4-tetrahydroquinolin-6-yl)thiophene-2-carboximidamide] | – | – | 0.235 | – | IC50 ([1]; read-out: heNOS IC50): 22.5 µM
N=C(Nc1ccc2c(c1)CCCN2CCN1CCOCC1)c1cccs1 [Example 64, N-(1-(2-morpholinoethyl)-1,2,3,4-tetrahydroquinolin-6-yl)thiophene-2-carboximidamide] | – | 82.5 | 0.68 | 121 | –
N=C(Nc1ccc2c(c1)CCN2CCN1CCCC1)c1cccs1 [Example 67, N-(1-(2-(Pyrrolidin-1-yl)ethyl)indolin-5-yl)thiophene-2-carboximidamide] | – | 26.9 | 0.092 | 292 | –
CN(C)CCN1CCc2cc(NC(=N)c3cccs3)ccc21 [Example 68, N-(1-(2-(Dimethylamino)ethyl)indolin-5-yl)thiophene-2-carboximidamide] | – | 12.9 | 0.041 | 316 | –
CN(CCO)CCCN1CCCc2cc(NC(=N)c3cccs3)ccc21 [Example 69, N-(1-(3-((2-Hydroxyethyl)(methyl)amino)propyl)-1,2,3,4-tetrahydroquinolin-6-yl)thiophene-2-carboximidamide] | – | 39.9 | 0.078 | 511 | –
CNC1CCC(N2CCc3cc(NC(=N)c4cccs4)ccc32)CC1 (stereo not drawn) [Example 70, N-(1-(4-(Methylamino)cyclohexyl)indolin-5-yl)thiophene-2-carboximidamide] | – | 17.9 | 0.21 | 86.5 | –
CNC1CCC(N2CCc3cc(NC(=N)c4cccs4)ccc32)CC1 (stereo not drawn) [Example 71, N-(1-(4-(Methylamino)cyclohexyl)indolin-5-yl)thiophene-2-carboximidamide] | – | 34.1 | 0.105 | – | –

— US8173813B2, “Quinolone and tetrahydroquinolone and related compounds having NOS inhibitory activity” (NeurAxon, Inc., priority 2007, dated 2012)
